In this assay the target is T1, human TLR9 (Homo sapiens, UniProt Q9NR96).
T1 construct: host or cells: HEK-Blue cells
T1 sequence (Q9NR96 26-1032): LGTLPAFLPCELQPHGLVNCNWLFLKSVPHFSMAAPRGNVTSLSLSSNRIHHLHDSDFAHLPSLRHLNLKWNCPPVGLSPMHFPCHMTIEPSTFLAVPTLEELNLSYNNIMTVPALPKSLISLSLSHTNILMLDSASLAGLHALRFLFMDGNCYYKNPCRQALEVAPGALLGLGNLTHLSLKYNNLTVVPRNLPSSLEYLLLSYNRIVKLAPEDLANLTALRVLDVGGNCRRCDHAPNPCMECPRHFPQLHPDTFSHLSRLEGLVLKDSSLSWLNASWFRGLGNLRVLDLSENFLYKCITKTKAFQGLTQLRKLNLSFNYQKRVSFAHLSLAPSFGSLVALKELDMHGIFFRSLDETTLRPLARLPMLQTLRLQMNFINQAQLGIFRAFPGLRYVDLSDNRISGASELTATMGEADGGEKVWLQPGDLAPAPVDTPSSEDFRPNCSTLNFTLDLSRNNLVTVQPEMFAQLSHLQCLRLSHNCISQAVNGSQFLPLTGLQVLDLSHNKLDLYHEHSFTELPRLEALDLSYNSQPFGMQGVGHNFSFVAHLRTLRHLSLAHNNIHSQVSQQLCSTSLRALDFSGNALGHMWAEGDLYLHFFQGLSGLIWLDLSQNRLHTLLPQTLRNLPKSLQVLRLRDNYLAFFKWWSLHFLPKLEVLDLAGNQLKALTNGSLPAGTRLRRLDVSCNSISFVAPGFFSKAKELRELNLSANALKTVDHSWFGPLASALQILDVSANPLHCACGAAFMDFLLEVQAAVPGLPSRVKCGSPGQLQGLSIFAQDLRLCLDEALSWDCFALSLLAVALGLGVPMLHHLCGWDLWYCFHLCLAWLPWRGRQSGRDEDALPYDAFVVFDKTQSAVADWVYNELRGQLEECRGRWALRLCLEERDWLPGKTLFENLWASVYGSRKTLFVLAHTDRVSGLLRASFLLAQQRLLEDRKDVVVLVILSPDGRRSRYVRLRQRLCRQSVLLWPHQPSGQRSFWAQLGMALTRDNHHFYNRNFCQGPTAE
The experiment in a line: TLR9 inhibition reporter assay (HEK-Blue cells, SEAP reporter). The class given is cell-based. The following applies: HEK-Blue cells overexpressing human TLR9, stimulated with ODN2006 5 nM, 22 hour incubation. The essentials:
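Compound dose-response (0.05 nM–50 μM final) on agonist-stimulated human TLR9 HEK-Blue cells, 25,000/well, incubated 22 h at 37 °C, 5% CO2. Readout was secreted alkaline phosphatase under an IFN-β minimal promoter with NF-κB/AP-1 sites; inhibition expressed relative to DMSO and reference-inhibitor controls.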

As for `CCOC(=O)N1CCC(N2CCC(c3cc4c(cn3)cc(-c3ccc(OC)c(OC)c3)n4C)CC2)CC1` [Example 7, Ethyl 4-(2-(3,4-dimethoxyphenyl)-1-methyl-1H-pyrrolo[3,2-c]pyridin-6-yl)-[1,4′-bipiperidine]-1′-carboxylate], inhibition was half-maximal at 111 nM (IC50). That is a sub-micromolar value.

`COc1ccc(-c2cc3cnc(C4CCN(Cc5ccc(C)nc5)CC4)cc3n2C)cc1OC` [Example 8, 2-(3,4-Dimethoxyphenyl)-1-methyl-6-(1-((6-methylpyridin-3-yl)methyl)piperidin-4-yl)-1H-pyrrolo[3,2-c]pyridine] registered an IC50 of 58 nM. Against the preceding compound, the IC50 is about 1.9-fold lower.

On to `Cc1nc(-c2cc(F)c(N3CCN(C4CCOCC4)CC3)c(F)c2)cc2c1cc(-c1ccc(S(C)(=O)=O)cc1)n2C` [Example 89, 6-(3,5-difluoro-4-(4-(tetrahydro-2H-pyran-4-yl)piperazin-1-yl)phenyl)-1,4-dimethyl-2-(4-(methylsulfonyl)phenyl)-1H-pyrrolo[3,2-c]pyridine], for which inhibition was half-maximal at 226 nM (IC50). This IC50 is about 3.9-fold higher than that of the compound before.

Consider `Cc1nc(-c2ccc(C3(O)CCN(CC(C)C)CC3)c(F)c2)cc2c1cc(-c1ccc(S(C)(=O)=O)cc1)n2C` [Example 90, 4-(4-(1,4-dimethyl-2-(4-(methylsulfonyl)phenyl)-1H-pyrrolo[3,2-c]pyridin-6-yl)-2-fluorophenyl)-1-isobutylpiperidin-4-ol], for which the IC50 worked out at 141 nM.

`Cc1nc(-c2ccc(C3(O)CC4CCC(C3)N4CC(C)C)c(F)c2)cc2c1cc(-c1ccc(S(C)(=O)=O)cc1)n2C` [Example 91, (1R,3r,5S)-3-(4-(1,4-dimethyl-2-(4-(methylsulfonyl)phenyl)-1H-pyrrolo[3,2-c]pyridin-6-yl)-2-fluorophenyl)-8-isobutyl-8-azabicyclo[3.2.1]octan-3-ol] yielded a half-maximal inhibitory concentration (IC50) of 735 nM. This IC50 is about 5.2-fold higher than that of the compound before.

The compound `COCCN1CCC(O)(c2ccc(-c3cc4c(cc(-c5ccc(S(C)(=O)=O)cc5)n4C)c(C)n3)cc2F)CC1` [Example 92, 4-(4-(1,4-dimethyl-2-(4-(methylsulfonyl)phenyl)-1H-pyrrolo[3,2-c]pyridin-6-yl)-2-fluorophenyl)-1-(2-methoxyethyl)piperidin-4-ol] gave a half-maximal inhibitory concentration (IC50) of 109 nM.

Turning to `Cc1nc(-c2ccc(C3(O)CCN(C4CC4)CC3)c(F)c2)cc2c1cc(-c1ccc(S(C)(=O)=O)cc1)n2C` [Example 93, 1-cyclopropyl-4-(4-(1,4-dimethyl-2-(4-(methylsulfonyl)phenyl)-1H-pyrrolo[3,2-c]pyridin-6-yl)-2-fluorophenyl)piperidin-4-ol], the IC50 worked out at 1430 nM.

For the compound `Cc1nc(-c2cc(F)c(C3(O)CCN(CC(C)C)CC3)cc2F)cc2c1cc(-c1ccc(S(C)(=O)=O)cc1)n2C` [Example 94, 4-(4-(1,4-dimethyl-2-(4-(methylsulfonyl)phenyl)-1H-pyrrolo[3,2-c]pyridin-6-yl)-2,5-difluorophenyl)-1-isobutylpiperidin-4-ol], the concentration for half-maximal inhibition (IC50) came to 143 nM.

Take `COCCN1CCC(O)(c2cc(F)c(-c3cc4c(cc(-c5ccc(S(C)(=O)=O)cc5)n4C)c(C)n3)cc2F)CC1` [Example 95, 4-(4-(1,4-dimethyl-2-(4-(methylsulfonyl)phenyl)-1H-pyrrolo[3,2-c]pyridin-6-yl)-2,5-difluorophenyl)-1-(2-methoxyethyl)piperidin-4-ol]: it took 537 nM to reach half-maximal inhibition (IC50).

As to `Cc1nc(-c2cc(F)c(C3(O)CCN(C4CC4)CC3)cc2F)cc2c1cc(-c1ccc(S(C)(=O)=O)cc1)n2C` [Example 96, 1-cyclopropyl-4-(4-(1,4-dimethyl-2-(4-(methylsulfonyl)phenyl)-1H-pyrrolo[3,2-c]pyridin-6-yl)-2,5-difluorophenyl)piperidin-4-ol], the IC50 is 162 nM.

Turning to `Cc1nc(-c2cc(F)c(N3CCN4CCCC4C3)cc2F)cc2c1cc(-c1ccc(S(C)(=O)=O)cc1)n2C` (stereo not drawn) [Example 97, 6-(2,5-difluoro-4-(hexahydropyrrolo[1,2-a]pyrazin-2(1H)-yl)phenyl)-1,4-dimethyl-2-(4-(methylsulfonyl)phenyl)-1H-pyrrolo[3,2-c]pyridine], 202 nM corresponded to half-maximal inhibition (IC50). The IC50 values of the last two compounds are within 1.5-fold of each other.

As for `Cc1nc(-c2cc(F)c(N3CCN4CCCC4C3)c(F)c2)cc2c1cc(-c1ccc(S(C)(=O)=O)cc1)n2C` (stereo not drawn) [Example 98, 6-(3,5-difluoro-4-(hexahydropyrrolo[1,2-a]pyrazin-2(1H)-yl)phenyl)-1,4-dimethyl-2-(4-(methylsulfonyl)phenyl)-1H-pyrrolo[3,2-c]pyridine], the IC50 was determined as 212 nM.

The record behind these values is US12590091B2, “1H-pyrrolo[3,2-C]pyridine and 1H-pyrrolo[2,3-C]pyridine derivatives as TLR9 inhibitors for the treatment of fibrosis” (BRISTOL-MYERS SQUIBB COMPANY, priority 2020, dated 2026).
